Assay results published in ChEMBL document CHEMBL1136464, “Array synthesis of novel lipodepsipeptide” (Bioorg Med Chem Lett, 2003).
≈ marks a conversion by molar mass, not a printed value.

How the values were obtained:
Enterococcus faecalis [1] = assay: Antibacterial activity against Enterococcus faecalis ATCC 6569; type: functional
Enterococcus faecium [2] = assay: Antibacterial activity against Enterococcus faecium ATCC 49452; type: functional
Staphylococcus aureus [3] = assay: Antibacterial activity against methicillin-resistant staphylococcus aureus ATCC 43300; type: functional
Staphylococcus aureus [4] = assay: Antibacterial activity against methicillin susceptible staphylococcus aureus ATCC 29213; type: functional
Enterococcus faecium [5] = assay: Antibacterial activity against Enterococcus faecium ATCC 49452 at 0 % serum; type: functional
Enterococcus faecium [6] = assay: Antibacterial activity against Enterococcus faecium ATCC 49452 at 10 % serum; type: functional; conditions: ATCC 49452, Serum
Staphylococcus aureus [7] = assay: Antibacterial activity against methicillin susceptible staphylococcus aureus ATCC 29213 at 0 % serum; type: functional
Enterococcus faecalis [8] = assay: Antibacterial activity against Enterococcus faecalis ATCC 6569 at 0 % serum; type: functional
Staphylococcus aureus [9] = assay: Antibacterial activity against methicillin-resistant staphylococcus aureus ATCC 43300 at 0 % serum; type: functional
Enterococcus faecalis [10] = assay: Antibacterial activity against Enterococcus faecalis ATCC 6569 at 10 % serum; type: functional; conditions: ATCC 6569, Serum
Staphylococcus aureus [11] = assay: Antibacterial activity against methicillin susceptible staphylococcus aureus ATCC 29213 at 10 % serum; type: functional
Staphylococcus aureus [12] = assay: Antibacterial activity against methicillin-resistant staphylococcus aureus ATCC 43300 at 10 % serum; type: functional
[13] = Half-life in mice; type: ADME, organism-based; conditions: mouse, in vivo
[14] = Total plasma clearance in mice; type: ADME, organism-based; conditions: mouse
[15] = Vd in mice; type: ADME, organism-based; conditions: mouse, in vivo
Mus musculus = species on record: Mus musculus; assay: Protective dose against methicillin-resistant staphylococcus aureus ATCC 43300 was determined in mice; type: functional; conditions: read-out: PD50
Enterococcus faecalis [16] = assay: Antibacterial activity against Enterococcus faecalis ATCC 6569 at 0 % serum in mice; type: functional
Staphylococcus aureus [17] = assay: Antibacterial activity against methicillin-resistant staphylococcus aureus ATCC 43300 at 10 % serum in mice; type: functional
Staphylococcus aureus [18] = assay: Antibacterial activity against methicillin-resistant staphylococcus aureus ATCC 43300 at 0 % serum in mice; type: functional
Enterococcus faecium [19] = assay: Antibacterial activity against Enterococcus faecium ATCC 49452 at 10 % serum in mice; type: functional; conditions: ATCC 49452, Serum
Enterococcus faecalis [20] = assay: Antibacterial activity against Enterococcus faecalis ATCC 6569 at 10 % serum in mice; type: functional
Enterococcus faecium [21] = assay: Antibacterial activity against Enterococcus faecium ATCC 49452 at 0 % serum in mice; type: functional

Row | SMILES | MIC (Enterococcus faecalis [1]) [µg/mL] | MIC (Enterococcus faecium [2]) [µg/mL] | MIC (Enterococcus faecium [5]) [µg/mL] | MIC (Enterococcus faecium [6]) [µg/mL] | MIC (Staphylococcus aureus [7]) [µg/mL] | MIC (Enterococcus faecalis [8]) [µg/mL] | MIC (Staphylococcus aureus [9]) [µg/mL] | MIC (Enterococcus faecalis [10]) [µg/mL] | MIC (Staphylococcus aureus [11]) [µg/mL] | MIC (Staphylococcus aureus [12]) [µg/mL] | other results
1 | CCCCCCCCCC(=O)N[C@@H](Cc1c[nH]c2ccccc12)C(=O)N[C@H](CC(N)=O)C(=O)N[C@@H](CCO)C(=O)N[C@@H]1C(=O)NCC(=O)N[C@@H](CCCNC(=O)C(N)Cc2c[nH]c3ccc(F)cc23)C(=O)N[C@@H](CC(=O)O)C(=O)N[C@H](C)C(=O)N[C@@H](CC(=O)O)C(=O)NCC(=O)N[C@H](CO)C(=O)N[C@@H]([C@H](C)CC(=O)O)C(=O)N[C@@H](CC(=O)c2ccccc2N)C(=O)O[C@@H]1C (stereo partly drawn) | 3.1 (≈ 1.71 µM) | 12.5 (≈ 6.9 µM) |  |  |  |  |  |  |  |  | 
2 | CCCCCCCCCC(=O)N[C@@H](Cc1c[nH]c2ccccc12)C(=O)N[C@H](CC(N)=O)C(=O)N[C@@H](CCO)C(=O)N[C@@H]1C(=O)NCC(=O)N[C@@H](CCCNC(=O)c2c(N)cccc2F)C(=O)N[C@@H](CC(=O)O)C(=O)N[C@H](C)C(=O)N[C@@H](CC(=O)O)C(=O)NCC(=O)N[C@H](CO)C(=O)N[C@@H]([C@H](C)CC(=O)O)C(=O)N[C@@H](CC(=O)c2ccccc2N)C(=O)O[C@@H]1C | 3.1 (≈ 1.78 µM) | 3.1 (≈ 1.78 µM) |  |  |  |  |  |  |  |  | 
3 | CCCCCCCCCC(=O)N[C@@H](Cc1c[nH]c2ccccc12)C(=O)N[C@H](CC(N)=O)C(=O)N[C@@H](CCO)C(=O)N[C@@H]1C(=O)NCC(=O)N[C@@H](CCCNC(=O)c2ccccc2N)C(=O)N[C@@H](CC(=O)O)C(=O)N[C@H](C)C(=O)N[C@@H](CC(=O)O)C(=O)NCC(=O)N[C@H](CO)C(=O)N[C@@H]([C@H](C)CC(=O)O)C(=O)N[C@@H](CC(=O)c2ccccc2N)C(=O)O[C@@H]1C | 3.1 (≈ 1.8 µM) | 12.5 (≈ 7.24 µM) |  |  |  |  |  |  |  |  | MIC (Staphylococcus aureus [3]): 0.78 µg/mL (≈ 0.452 µM); MIC (Staphylococcus aureus [4]): 1.56 µg/mL (≈ 0.904 µM)
4 | CCCCCCCCCC(=O)N[C@@H](Cc1c[nH]c2ccccc12)C(=O)N[C@H](CC(N)=O)C(=O)N[C@@H](CCO)C(=O)N[C@@H]1C(=O)NCC(=O)N[C@@H](CCCNC(=O)c2ccccc2)C(=O)N[C@@H](CC(=O)O)C(=O)N[C@H](C)C(=O)N[C@@H](CC(=O)O)C(=O)NCC(=O)N[C@H](CO)C(=O)N[C@@H]([C@H](C)CC(=O)O)C(=O)N[C@@H](CC(=O)c2ccccc2N)C(=O)O[C@@H]1C | 25 (≈ 14.6 µM) | 25 (≈ 14.6 µM) |  |  |  |  |  |  |  |  | MIC (Staphylococcus aureus [3]): 6.25 µg/mL (≈ 3.65 µM); MIC (Staphylococcus aureus [4]): 12.5 µg/mL (≈ 7.31 µM)
5 | CCCCCCCCCC(=O)N[C@@H](Cc1c[nH]c2ccccc12)C(=O)N[C@H](CC(N)=O)C(=O)N[C@@H](CCO)C(=O)N[C@@H]1C(=O)NCC(=O)N[C@@H](CCCNC(=O)c2ccccc2S(=O)(=O)O)C(=O)N[C@@H](CC(=O)O)C(=O)N[C@H](C)C(=O)N[C@@H](CC(=O)O)C(=O)NCC(=O)N[C@H](CO)C(=O)N[C@@H]([C@H](C)CC(=O)O)C(=O)N[C@@H](CC(=O)c2ccccc2N)C(=O)O[C@@H]1C | 100 (≈ 55.8 µM) | 100 (≈ 55.8 µM) |  |  |  |  |  |  |  |  | MIC (Staphylococcus aureus [3]): 100 µg/mL (≈ 55.8 µM); MIC (Staphylococcus aureus [4]): 100 µg/mL (≈ 55.8 µM)
6 | CCCCCCCCCC(=O)N[C@@H](Cc1c[nH]c2ccccc12)C(=O)N[C@H](CC(N)=O)C(=O)N[C@@H](CCO)C(=O)N[C@@H]1C(=O)NCC(=O)N[C@@H](CCCNCc2ccc(N3CCN(Cc4ccccc4)CC3)cc2)C(=O)N[C@@H](CC(=O)O)C(=O)N[C@H](C)C(=O)N[C@@H](CC(=O)O)C(=O)NCC(=O)N[C@H](CO)C(=O)N[C@@H]([C@H](C)CC(=O)O)C(=O)N[C@@H](CC(=O)c2ccccc2N)C(=O)O[C@@H]1C |  |  | 12.5 (≈ 6.68 µM) | 25 (≈ 13.4 µM) | 0.78 (≈ 0.417 µM) | 6.25 (≈ 3.34 µM) | 0.78 (≈ 0.417 µM) | 12.5 (≈ 6.68 µM) | 0.78 (≈ 0.417 µM) | 0.78 (≈ 0.417 µM) | 
7 | CCCCCCCCCC(=O)N[C@@H](Cc1c[nH]c2ccccc12)C(=O)N[C@H](CC(N)=O)C(=O)N[C@@H](CC(=O)O)C(=O)N[C@@H]1C(=O)NCC(=O)N[C@@H](CCCNCc2ccc(-c3ccccc3)cc2)C(=O)N[C@@H](CC(=O)O)C(=O)N[C@H](C)C(=O)N[C@@H](CC(=O)O)C(=O)NCC(=O)N[C@H](CO)C(=O)N[C@@H]([C@H](C)CC(=O)O)C(=O)N[C@@H](CC(=O)c2ccccc2N)C(=O)O[C@@H]1C [listing 1 of 2 here] |  |  |  |  |  |  |  |  |  |  | half-life [13]: 7.9 h; clearance [14]: 0.157 mL/min/kg; Vd [15]: 0.107 L/kg
8 | CCCCCCCCCC(=O)N[C@@H](Cc1c[nH]c2ccccc12)C(=O)N[C@H](CC(N)=O)C(=O)N[C@@H](CC(=O)O)C(=O)N[C@@H]1C(=O)NCC(=O)N[C@@H](CCCNCc2ccc(-c3ccccc3)cc2)C(=O)N[C@@H](CC(=O)O)C(=O)N[C@H](C)C(=O)N[C@@H](CC(=O)O)C(=O)NCC(=O)N[C@H](CO)C(=O)N[C@@H]([C@H](C)CC(=O)O)C(=O)N[C@@H](CC(=O)c2ccccc2N)C(=O)O[C@@H]1C [listing 2 of 2 here] |  |  | 1.56 (≈ 0.873 µM) | 25 (≈ 14 µM) | 0.39 (≈ 0.218 µM) | 1.56 (≈ 0.873 µM) | 0.2 (≈ 0.112 µM) | 12.5 (≈ 7 µM) | 3.13 (≈ 1.75 µM) | 1.56 (≈ 0.873 µM) | ED50 (Mus musculus): 1.04 mg/kg
9 | CCCCCCCCCC(=O)N[C@@H](Cc1c[nH]c2ccccc12)C(=O)N[C@H](CC(N)=O)C(=O)N[C@@H](CCO)C(=O)N[C@@H]1C(=O)NCC(=O)N[C@@H](CCCNCc2ccc(C#N)cc2)C(=O)N[C@@H](CC(=O)O)C(=O)N[C@H](C)C(=O)N[C@@H](CC(=O)O)C(=O)NCC(=O)N[C@H](CO)C(=O)N[C@@H]([C@H](C)CC(=O)O)C(=O)N[C@@H](CC(=O)c2ccccc2N)C(=O)O[C@@H]1C |  |  | 6.25 (≈ 3.63 µM) | 12.5 (≈ 7.26 µM) | 0.78 (≈ 0.453 µM) | 6.25 (≈ 3.63 µM) | 0.78 (≈ 0.453 µM) | 6.25 (≈ 3.63 µM) | 0.78 (≈ 0.453 µM) | 0.78 (≈ 0.453 µM) | 
10 | CCCCCCCCCC(=O)N[C@@H](Cc1c[nH]c2ccccc12)C(=O)N[C@H](CC(N)=O)C(=O)N[C@@H](CCO)C(=O)N[C@@H]1C(=O)NCC(=O)N[C@@H](CCCNCc2ccc(S(=O)(=O)N3CCN(c4ncccn4)CC3)cc2)C(=O)N[C@@H](CC(=O)O)C(=O)N[C@H](C)C(=O)N[C@@H](CC(=O)O)C(=O)NCC(=O)N[C@H](CO)C(=O)N[C@@H]([C@H](C)CC(=O)O)C(=O)N[C@@H](CC(=O)c2ccccc2N)C(=O)O[C@@H]1C |  |  | 3.13 (≈ 1.63 µM) | 12.5 (≈ 6.5 µM) | 0.78 (≈ 0.406 µM) | 3.13 (≈ 1.63 µM) | 0.39 (≈ 0.203 µM) | 6.25 (≈ 3.25 µM) | 1.56 (≈ 0.811 µM) | 1.56 (≈ 0.811 µM) | 
11 | CCCCCCCCCC(=O)N[C@@H](Cc1c[nH]c2ccccc12)C(=O)N[C@H](CC(N)=O)C(=O)N[C@@H](CC(=O)O)C(=O)N[C@@H]1C(=O)NCC(=O)N[C@@H](CCCN)C(=O)N[C@@H](CC(=O)O)C(=O)N[C@H](C)C(=O)N[C@@H](CC(=O)O)C(=O)NCC(=O)N[C@H](CO)C(=O)N[C@@H]([C@H](C)CC(=O)O)C(=O)N[C@@H](CC(=O)c2ccccc2N)C(=O)O[C@@H]1C |  |  |  |  |  |  |  |  |  |  | MIC (Enterococcus faecalis [16]): 1.56 µg/mL (≈ 0.963 µM); MIC (Staphylococcus aureus [17]): 0.78 µg/mL (≈ 0.481 µM); MIC (Staphylococcus aureus [18]): 0.78 µg/mL (≈ 0.481 µM); MIC (Enterococcus faecium [19]): 1.56 µg/mL (≈ 0.963 µM); MIC (Enterococcus faecalis [20]): 3.13 µg/mL (≈ 1.93 µM); MIC (Enterococcus faecium [21]): 1.56 µg/mL (≈ 0.963 µM)
